Assay results taken from US9011925B2, “Method for preparing polysaccharide nanocomposite particles and uses of the same” (China Medical University, priority 2011, dated 2015).
Converted amounts (≈) assume the structure as drawn.

Assays:
[1] = system: Colo 205 human rectum tumor cells; assay: Cytotoxicity assay (MTT); type: cell-based; settings: colo 205 cells, 72th hour, read-out: 1050 (50% concentration of inhibition)
Procedure: Colo 205 human rectum tumor cells were inoculated in a 24-well culture dish (1×10^4 cells/well), and incubated in an incubator at 37° C. under 5% CO2 for 24 hours. Then, the active component (KCY-Tai 1 and KCY-Tai 2) or polysaccharide nanocomposite particles (KCY-Tai 1-CNPs and KCY-Tai 2-CNPs 2) with different concentrations (0.39 to 12.5 μg/ml) was respectively added into the culture dish, and the cells were incubated for 24, 72, and 120 hours. The cells were washed with 1×PBS twice. MTT (3-(4,5-dimethyl thiazole-2-yl)-2,5-diphenyl tetrazolium bromide) (0.5 mg/ml) was added to the culture dish (200 μl/well), and the dish was placed in an incubator at 37° C. under 5% CO2. After incubating for 4 hours, MTT was sucked out and removed, and […] dimethyl sulfoxide (DMSO) was added into each well. After incubating on the shaker for 30 minutes, […] of the sample was sucked out from each well and transferred into a 96-well culture dish. The absorbance of the sample was determined under the wavelength of 570 nm by an enzyme-linked immunosorbent assay (ELISA) reader.

[2] = system: lung cancer cells, breast cancer cells, and rectal cancer cells; settings: cited from earlier work
[3] = system: p53 protein; settings: HepG2/A2 cells; cited from earlier work
[4] = system: HepG2/A2; settings: cited from earlier work
[5] = Surface potential analysis (Zetasizer, DLS); type: physicochemical; settings: diluted 50-folds with water, sonicated 1 hour
Procedure: [Surface Potential Analysis]
The samples were diluted 50-folds with water, and sonicated for 1 hour by using an ultrasonic vibration machine. Then, the samples dissolved in water were analyzed by using a Zetasizer machine (Malvern ZS90) based on the principle of dynamic light scattering (DLS) to observe the surface potential and particle size distribution of the particles.

SMILES | IC50 [1] [µg/mL] | cytotoxicity effects on lung, breast and rectal cancer cells [2] | p53 protein activation [3] | cell cycle effect ([4]; accumulation of cyclin B1/cdc2 complex) | apoptosis markers (micronucleation, DNA fragmentation, caspase-3) [4] | effect on mitotic spindle (immunofluorescence staining) [4] | Surface potential (mV) [5] [mV]
O=C1OCC(=C/c2ccc3c(c2)OCO3)/C1=C\c1ccc2c(c1)OCO2 [KCY-Tai 1] | 3 (≈ 8.56 µM) | significant cytotoxicity effects | activation of p53 protein | arrested at G2/M phase | activation of caspase-3 | interrupt the formation of mitotic spindle | −22.5
COc1cc(/C=C2/C(=O)OC/C2=C/c2ccc3c(c2)OCO3)cc(OC)c1OC [KCY-Tai 2] | 0.7 (≈ 1.77 µM) | significant cytotoxicity effects |  |  |  |  | −11.8
